Laboratory results taken from patent publication US8945397B2, “Methods of inhibiting cyanobacteria growth by administering gramine derivatives” (priority 2012, dated 2015).
Converted amounts (≈) assume the structure as drawn. “Also recorded” adds a separate entry of the source.

How the values were obtained:
[1] = tested on: M. aeruginosa cyanobacteria, isolate strain 2667; test: Petri dish screen of gramine compounds for M. aeruginosa growth inhibition; format: cell-based, Microcystis aeruginosa; conditions: about 0.5 mg/L compound in BG-11 medium, after 15 days, FIG. 2
Procedure: The screen tested the compounds on M. aeruginosa cyanobacteria, isolate strain 2667 from Culture Collection of Algae (CCA) at the University of Texas at Austin. For the initial screening test, the twelve compounds were each administered at different concentrations of: 0.5 mg/L, 1.0 mg/L, 2.0 mg/L, 4.0 mg/L, and 8.0 mg/L. The compounds were added to a freshwater culture medium (BG-11 Medium from the CCA, UTEX) in petri dishes. The petri dish plates were then incubated at about 22° C. in a lighted growth chamber with about 16-hr light and about 8-hr dark. M. aeruginosa algae growth in the petri dishes were examined and documented after 15 days of incubation.
M. aeruginosa cells were streaked out on BG-11 medium that contained about 0.5 mg/L of the indicated compound. […] The faint algae smears for petri dishes streaked with 5,6-dichlogramine show the original algae cells that had died in the petri dish. […] The faint algae smears for petri dishes streaked with 5,6,7-trichlogramine show the original algae cells that had died in the petri dish.

Arabidopsis thaliana = test: Toxicity to Arabidopsis thaliana plants in petri dishes; format: in vivo; conditions: 8 mg/L in MS medium
Procedure: The effects of both compounds were tested on Arabidopsis thaliana, a small flowering plant that is widely used as an experimental model plant for laboratory studies. A. thaliana seeds were placed in petri dishes containing standard plant growth media with one gramine compound added (about 8 mg/L). For the control sample, the seeds were placed on the identical growth media without any gramine compound added. All petri dishes containing A. thaliana were kept in a lighted plant growth chamber at 22° C. with cycles of 16-hr light and 8-hr dark. Seed germination and seedling development were closely monitored and documented every 24 hours.
FIGS. 8a and 8b show images of A. thaliana plants after 8 days of plant growth, or 8 days after germination. The A. thaliana plants were grown in petri dishes filled with Murashige and Skoog medium (MS plant growth medium containing both macronutrients, micronutrients, and vitamins) purchased from Sigma (Cat #M5519)).
FIGS. 9a and 9b show images of A. thaliana plants after 10 days of growth, or 10 days after germination. The A. thaliana plants were grown in petri dishes filled with Murashige and Skoog medium (MS plant growth medium containing both macronutrients, micronutrients, and vitamins) purchased from Sigma (Cat #M5519)).

M. Aeruginosa [2] = test: Liquid culture optical absorption assay (OD600) of M. aeruginosa growth, 15 days; format: cell-based, Microcystis aeruginosa; conditions: 0.5 mg/L, Table 2 and FIG. 3
Procedure: To quantitatively measure M. Aeruginosa cell growth in responding to various gamine compounds, cell densities were determined by an optical absorption assay as measured by a spectrophotometer (Nanodrop 2000, Thermo Scientific). In the optical absorption assay, the absorbance of radiation (light) is measured as a function of frequency (wavelength). For this optical absorption assay, the algal cell density was determined at 600 nm wavelength. Equal amount of starting cells (optical density at wavelength 600 nm, OD600, was at 0.100 on Day 0) were placed in freshwater culture for 15 days of growth. After 15 days, the algae cell suspension is pipetted into a cuvette and placed within the spectrophotometer for the optical absorption assay.
There is a clear and distinct decrease in M. Aeruginosa algae growth when administered with 5,6-dichlogramine (Compound No. 9) and with 5,6,7-trichlorogramine (Compound No. 12) compared to M. Aeruginosa algae growth in control samples.

M. Aeruginosa [3] = test: Optical absorption assay of M. aeruginosa growth at varying concentrations, 8 days, with LC50 calculation; format: cell-based, Microcystis aeruginosa; conditions: for OD600 as % of the corresponding OD600 measurement of the control sample: 8 days; for OD600 of M. aeruginosa after 8 days: start OD600 0.1, control about 2.4; for LC50: Microcystis aeruginosa, 192 h, read-out: Lethal Concentration 50 (LC50)
Procedure: (§1) Different concentrations of 5,6-dichlorogramine were administered to M. aeruginosa cells as indicated. M. aeruginosa cell density measurements were taken every 24 hours. […] During the first 3 days, the M. aeruginosa cell densities for the control sample and the 5,6-dichlorogramine samples were similar. But starting on day 4, there was larger differentiation in M. aeruginosa cell densities between the control samples and the 5,6-dichlorogramine administered samples. […] In contrast, the OD600 of M. aeruginosa after 8 days of exposure to 0.05 mg/L 5,6-dichlorogramine was about 0.9, only about 38% of the corresponding OD600 measurement of the control sample. The OD600 measurement for M. aeruginosa after 8 days of exposure to about 0.2 mg/L 5,6-dichlorogramine was about 0.6, only about 25% of the corresponding OD600 measurement of the control sample. The OD600 measurement for M. aeruginosa after 8 days of exposure to about 0.8 mg/L 5,6-dichlorogramine was about 0.3, only about 13% of the corresponding OD600 measurement of the control sample.
as §1, with “5,6,7-trichlorogramine” for “5,6-dichlorogramine”
LC50 is a common way to describe the median lethal concentration of an administered agent in a medium, such as air or water, needed to kill half of the organism population living within the medium. LC50 is a well-known method of describing the acute toxicity of an administered agent on the target organism population.
(§2) In FIG. 6, the optical density measurement (OD600) of the M. aeruginosa cells on day 8 was plotted against the administered 5,6-dichlorogramine concentration. […] Half of about 2.4 is about 1.2, and according to FIG. 6, the 1.2 optical density measurement corresponds to an approximately 0.03 mg/L 5,6-dichlorogramine concentration. Based on these calculations, the effective amount of 5,6-dichlorogramine to administer to control the growth and spread of M. aeruginosa algae in fresh water may be a 5,6-dichlorogramine concentration ranging between about 0.01 mg/L and about 0.05 mg/L, and may be more specifically about 0.03 mg/L.
as §2, with “7,” for “6,”, “(ODo)” for “(OD600)”, “5,6,7-trichlorogramine” for “5,6-dichlorogramine”

| SMILES | M. aeruginosa growth in petri dishes [1] | growth and development of A. thaliana versus control (Arabidopsis thaliana; 8 days after germination) | Inhibition of M. aeruginosa growth in words (liquid culture) (M. Aeruginosa [2]) | OD600 as % of the corresponding OD600 measurement of the control sample (M. Aeruginosa [3]; 0.05 mg/L) | OD600 of M. aeruginosa after 8 days (M. Aeruginosa [3]; 0.05 mg/L) | LC50 (M. Aeruginosa [3]) | OD600 as % of the corresponding OD600 measurement of the control sample (M. Aeruginosa [3]; about 0.2 mg/L) | OD600 of M. aeruginosa after 8 days (M. Aeruginosa [3]; about 0.2 mg/L) | OD600 as % of the corresponding OD600 measurement of the control sample (M. Aeruginosa [3]; about 0.8 mg/L) | OD600 of M. aeruginosa after 8 days (M. Aeruginosa [3]; about 0.8 mg/L) | growth and development of A. thaliana versus control (Arabidopsis thaliana; 10 days after germination) |
| --- | --- | --- | --- | --- | --- | --- | --- | --- | --- | --- | --- |
| CN(C)Cc1c[nH]c2cc(Cl)c(Cl)cc12 [Compound No. 9, 5,6-dichlorogramine] | no M. aeruginosa growth; also recorded: inhibited M. aeruginosa growth completely | no growth or developmental difference | significantly inhibit the growth | about 38% | about 0.9 | ~0.03 µg/mL (≈ 0.123 µM) | about 25% | about 0.6 | about 13% | about 0.3 | – |
| CN(C)Cc1c[nH]c2c(Cl)c(Cl)c(Cl)cc12 [Compound No. 12, 5,6,7-trichlorogramine] | no M. aeruginosa growth; also recorded: inhibited M. aeruginosa growth completely | – | significantly inhibit the growth | about 38% | about 0.9 | ~0.03 µg/mL (≈ 0.108 µM) | about 25% | about 0.6 | about 13% | about 0.3 | no growth or developmental difference |
